US10149833B2, “Small molecule, indirubin-3-oxime, for prevention and treatment of bone disease” (Industry-Academic Cooperation Foundation, Yonsei University, priority 2013, dated 2018)
“Also recorded” adds a separate entry of the source.

Columns and labels:
ex vivo tibia = ex vivo tibia culture, tibia length and safranin staining; type: cell-based, C57BL/6 mice; conditions: 1 μM and 5 μM
Experimental: The tibiae were separated from 15.5-embryonic-day-old C57BL/6 mice, and were incubated in a 24-well tissue culture dish for 7 days. The medium used was prepared by adding 10% FBS, 1 mM beta-polyglycerol disodium phosphate, 50 ng/ml ascorbic acid, 0.3 mg/ml L-glutamine, 0.2% BSA, 100 U/ml penicillin, and 100 μg/ml streptomycin to a minimal essential medium (α-MEM, Gibco). Then, the tibiae were separated from the mice. After being treated in the medium for 24 hours, the tibia was treated with a drug. The medium and the drug were changed every two days. The tibia length was measured before and after treatment with the drug. The tibial tissue, on which drug treatment was completed, was rinsed with PBS and then fixed using 4% formaldehyde. The tissue-cultured embryo tibiae and the animal-tested tibiae were dewaxed in xylene, and were rehydrated in a stepwise-diluted ethanol solution. The tibial tissue, which was separated from 15.5-embryonic-day-old ICR mice and then tissue-cultured, was stained using the safranin staining procedure. Staining was carried out for 25 min in a 0.02% fast green solution, and after brief dipping in acetic acid, was again carried out for 7 min in a 0.1% safranin solution. Meanwhile, the tibial tissue that was animal-tested and decalcified in EDTA was stained via the hematoxylin-eosin staining procedure. […]

β-catenin [1] = assay: Western blot in RCS cells, β-catenin; type: cell-based, Rat; conditions: 24 hours treatment (FIG. 2A)
Experimental: (§1) Rat chondrosarcoma (RCS) cells were cultured in a Dulbecco's modified Eagle's medium (DMEM; Gibco, Grand Island, N.Y.), supplemented with 10% fetal bovine serum (FBS) and penicillin/streptomycin.
(§2) For Western blot analysis, cells were treated with indirubin-3′-oxime for 24 hours, cultured and reached to 70% confluency and then were harvested. After the harvested samples underwent cytolysis, the proteins were quantified, which was followed by electrophoresis using 10% or 12% SDA-PAGE gel. Afterwards, immunoblot was conducted using antibodies.
(§3) Indirubin-3′-oxime, a GSKβ inhibitor, is already known to increase the stability of β-catenin.

GSKβ = assay: Western blot in RCS cells, inactive GSKβ; type: cell-based, Rat; conditions: 24 hours treatment (FIG. 2A)
Experimental: as §1, §2, §3

β-catenin [2] = assay: ICC analysis (immunocytochemistry), β-catenin translocation into the nucleus; type: cell-based, Rat; conditions: RCS cells, 24 hours treatment (FIG. 2B)
Experimental: as §1
2.5×10^4 cells were adhered to a cover glass placed in a 12-well plate. Once securely attached, cells were treated with indirubin-3′-oxime for 24 hours, and then were rinsed with a phosphoric acid buffer solution. After adding 4% paraformaldehyde, cells were fixed at room temperature for 20 min. Then, proteins expressed in the cells were observed through cell membrane permeation, blocking, and immunofluorescent staining processes.
as §3

β-catenin [3] = assay: IHC analysis on ex vivo tibia tissues; type: cell-based, mice; conditions: ex vivo tibiae treated with the drug (FIG. 2C)
Experimental: The tibiae were separated from 15.5-embryonic-day-old C57BL/6 mice, and were incubated in a 24-well tissue culture dish for 7 days. The medium used was prepared by adding 10% FBS, 1 mM beta-polyglycerol disodium phosphate, 50 ng/ml ascorbic acid, 0.3 mg/ml L-glutamine, 0.2% BSA, 100 U/ml penicillin, and 100 μg/ml streptomycin to a minimal essential medium (α-MEM, Gibco). Then, the tibiae were separated from the mice. After being treated in the medium for 24 hours, the tibia was treated with a drug. The medium and the drug were changed every two days. The tibia length was measured before and after treatment with the drug. The tibial tissue, on which drug treatment was completed, was rinsed with PBS and then fixed using 4% formaldehyde.
(§4) The tibiae that underwent a dewaxing process were dehydrated. After paraffin blocks were formed, the tissues were sectioned at 4-μm thickness. The sectioned tissues were rehydrated, and then stained using immunofluorescence.
as §3

growth plate = growth plate activity in 7-week-old mice treated for 2 weeks; type: in vivo, C57BL/6 mice; conditions: treated 2 weeks
Experimental: (§5) Two and six-week-old C57BL/6 mice, purchased from KOATECH (Gyeonggi-do, South Korea), were cared for in accordance with the guidelines established by the Institutional Animal Care and Use Committee at Yonsei University. The mice were divided into a control group and an experimental group, and were adapted to the environment for 1 week. Afterwards, they were treated every day for 2 weeks with a solution containing 20% dimethyl […] and 30% ethanol, or with indirubin-3′-oxime (0.05 mg/kg, 0.1 mg/kg, and 0.5 mg/kg), via intraperitoneal injection. Two weeks later, the tibiae were separated from mice, and then the muscles were separated and removed, after which the bones were fixed using 4% formaldehyde. The bones were treated for 2 weeks with a 10% EDTA solution for the decalcification process. The EDTA solution was changed every two days.
(§6) The tissue-cultured embryo tibiae and the animal-tested tibiae were dewaxed in xylene, and were rehydrated in a stepwise-diluted ethanol solution. The tibial tissue, which was separated from 15.5-embryonic-day-old ICR mice and then tissue-cultured, was stained using the safranin staining procedure. Staining was carried out for 25 min in a 0.02% fast green solution, and after brief dipping in acetic acid, was again carried out for 7 min in a 0.1% safranin solution. Meanwhile, the tibial tissue that was animal-tested and decalcified in EDTA was stained via the hematoxylin-eosin staining procedure. The tissue was stained in a hematoxylin solution for 10 min and then rinsed in running water for 10 min. After being briefly dipped in a solution comprising 0.1% hydrochloric acid and 70% ethanol, the tissue was stained for 30 sec in an eosin solution. The stained tibial tissues again underwent a dehydration process in the stepwise-diluted ethanol solution and were dewaxed in xylene.
The tibiae that underwent a dewaxing process were dehydrated. After paraffin blocks were formed, the tissues were sectioned at 4-μm thickness. The sectioned tissues were rehydrated, and then stained using immunofluorescence. […]

tibia = tibia and growth plate length in mice dosed during a period of active growth; type: in vivo, C57BL/6 mice
Experimental: as §5, §6, §4
To understand whether indirubin-3′-oxime can actually produce an increase in bone length in mice, indirubin-3′-oxime was administered during a period of active growth, and its effect was examined (FIG. 4A). First of all, the effect on the activity of the growth plate in the middle of a period of growth was examined using the hematoxylin-eosin staining procedure (FIG. 4B).

[4] = growth plate at 9 weeks (FIG. 3C)

SMILES: O=C1Nc2ccccc2/C1=C1/Nc2ccccc2/C1=N\O [indirubin-3′-oxime]
- length of resting zone, proliferating zone and hypertrophic chondrocyte zone (safranin staining) (ex vivo tibia; 6 days, ex vivo tibia (FIGS. 1C, 1D)): increase in the total length (the resting zone, the proliferating zone, and the hypertrophic chondrocyte zone) that depended on the concentration
- increase in the total length of the tibia (ex vivo tibia; tibiae treated for 6 days, ex vivo culture (FIGS. 1A, 1B)): dose-dependently induces longitudinal bone growth; also recorded: increase in the total length depended on the concentration change
- stability of β-catenin (Western blot) (β-catenin [1]): increased the stability of β-catenin
- amount of inactive GSKβ (Western blot) (GSKβ): increasing the amount of inactive GSK3; also recorded: increasing the amount of inactive GSKβ
- amount of β-catenin translocated into the nucleus (ICC) (β-catenin [2]): increase in the amount of β-catenin that was translocated into the nucleus
- amount of β-catenin in the hypertrophic chondrocyte zone (IHC) (β-catenin [3]): amount of β-catenin markedly increased in the hypertrophic chondrocyte zone
- amount of Ki67, cell proliferation marker (IHC) (growth plate; [4]): increase in the amount of Ki67
- stability of β-catenin in growth plate (IHC) (growth plate; [4]): increase in the stability of β-catenin
- activity of the growth plate (hematoxylin-eosin staining) (growth plate; intraperitoneal, compared with control at 9 weeks (FIG. 3B)): inhibits growth plate senescence; also recorded: activity of the growth plate was still maintained
- persistence of the bone length effect after growth has ceased (tibia; 13-week-old mice (FIGS. 4D, 4E)): lasts even in 13-week-old mice; also recorded: found to last even in 13-week-old mice
- cell proliferation marker PCNA (tibia; mice dosed during period of active growth (FIG. 4B)): confirmed through PCNA
- total bone length of the tibia (tibia; mice dosed during period of active growth (FIG. 4D)): increase in the total bone length of the tibia
- length of each zone and total length of the growth plate (tibia; mice dosed during period of active growth, hematoxylin-eosin staining (FIGS. 4B, 4C)): increases not only the length of each zone but also the total length of the growth plate; also recorded: increase not only in the length of each zone but also in the total length of the growth plate
